Like-named read-outs stand apart in the source and are kept apart here.
Assays:
HCT-116 and MCF-7 cells = test: Confocal microscopy of intracellular localization; assay type: cell-based, human; conditions: DOX-1 and DOX-2 5 μM, 24 h; DOX 50 μM, 2 h
Description: A total of 24 h later, the studied compounds DOX-1 and DOX-2 at a concentration of 5 µM were added. Following another 24 h incubation period, Hoechst 33342 (Roche) was added, reaching a final concentration of 1.5 µg/mL. After 15 min, the dye-containing media was removed, and DBBS was added. The plate was subsequently analyzed using confocal microscopy (Zeiss LSM800, Jena, Germany).

[1] = Neutralization of the ABTS radical; conditions: for EC50: 37 °C, 15 min, 738 nm, read-out: EC50 of half-maximal ABTS radical inhibition; for Trolox Equivalent Antioxidant Capacity (TEAC): ABTS radical neutralization, relative to Trolox
Description: Initially, an ABTS solution was prepared in water at a concentration of 7 mM. Subsequently, the radical cation ABTS^•+ was generated by mixing the original ABTS solution with 2.45 mM ammonium persulfate at a 1:1 ratio. This mixture was then allowed to stand in the dark at room temperature for 12–16 h before use. The diluted ABTS^•+ solution was prepared in a methanol/water mixture (1:1) reaching an optical density of 0.7 units at 738 nm (~0.7 mM). Next, various concentrations of compounds (ranging from 1000, 500, 250, 125, 62.5, 31.2, 15.6, to 7.8 μM) in a volume of 130 µL in a methanol/water mixture (1:1) were mixed with the ABTS radical cation solution (~0.7 mM) in a volume of 130 µL. The mixture was then incubated at 37 °C in a water bath for 15 min. The optical density was measured at 738 nm using the Infinite M200 PRO (TECAN, Zürich, Switzerland) plate reader. The percentage inhibition of ABTS absorption relative to the control was calculated. A percent inhibition vs. antioxidant concentration graph was plotted and the concentration of the antioxidant that suppresses the optical density of the ABTS radical by 50% (EC50) was determined. The Trolox Equivalent Antioxidant Capacity (TEAC) was also calculated.

porcine neuronal tubulin = test: Tubulin polymerization assay (Cytoskeleton kit); assay type: biochemical; conditions: effector 10 µM; for Maximum Initial Rate of Polymerization V Max: tubulin 3 mg/mL, 37 °C
Description: To assess the effect of the test compounds on tubulin polymerization, a test kit from Cytoskeleton was used. The plate was pre-warmed to 37 °C for 20 min before starting the assay. Then, 10 µL of the compound of interest, at a 10-fold concentration in an assay buffer, was pipetted into the plate. For comparison, paclitaxel, a polymerization enhancer, and vinblastine, a tubulin polymerization inhibitor, were used. Both effectors were used at a concentration of 10 µM. The assay buffer served as a control. The plate was then incubated at 37 °C for 2 min, after which 100 µL of the diluted tubulin solution (containing 3 mg/mL of tubulin in 80 mM PIPES pH 6.9, 2 mM MgCl2, 0.5 mM EGTA, 1 mM GTP, and 7% glycerol) was added. The plate was then immediately placed in the plate reader. Absorbance was measured at 340 nm every minute for 61 readings on a Varioskan LUX (Thermo Scientific, Waltham, MA, USA) plate reader.

[2] = tested on: genomic DNA from chicken erythrocytes; test: Agarose gel electrophoresis of DNA compositions; assay type: binding; conditions: DNA 30 μg/mL; for Interaction with DNA (in words): 11.2 to 180 μM
Description: The mixtures were then incubated for 30 min. To visualize nucleic acids, the intercalating dye SYBR Green was added at a ratio of 1:10 to the final volume, and the mixtures were incubated in the dark for an additional 15 min. […] The electrolyte used was TAE buffer (pH 8.0).

[3] = tested on: chicken erythrocyte genomic DNA; test: Spectrophotometry of complexation with genomic DNA
Description: Chicken erythrocyte genomic DNA (Reanal, Budapest, Hungary) solution was prepared by dissolving 6 mg of DNA in 3 mL of Tris-EDTA (TE) buffer and allowed to stay for 2 days at a temperature of +2 °C until clear. The concentration of the initial DNA solution was measured using a nanodrop spectrophotometer (DeNovix, Wilmington, DE, USA). A series of DNA concentrations were prepared in TE buffer (60, 30, 20, 15 μg/mL). […] As a control, an equivalent amount of TE buffer in place of the genomic DNA was added to the samples. […] The results were then computed and statistically analyzed using GraphPad Prism software 8.0.1.

HCT-116 = test: Colony formation assay; assay type: cell-based; conditions: Homo sapiens, HCT-116, 72 h, read-out: Inhibitory concentration IC50, HCT-116
Description: (§1) Cells were cultured in a 24-well plate with 1 mL of DMEM nutrient medium for 24 h. […] The experiment was conducted in triplicate and in two or three independent repetitions. Only solvent was added to the control wells instead of the test compounds. Incubation with the drugs continued for three days, after which the grown colonies were washed with cold PBS solution and fixed in a fixing buffer (10% acetic acid, 10% methanol in distilled water) for 15 min. The colonies were stained with a 0.4% solution of crystal violet in 20% ethanol for 30 min and then washed 3 times with dH2O and analyzed under a microscope. The colonies were then dissolved in 10% acetic acid for 40 min on a shaker, and the absorbance of the lysate was read at 590 nm. Results were expressed as a percentage relative to the control, and a dose–response curve was plotted to determine the IC50 value.

MCF-7 = test: Colony formation assay; assay type: cell-based; conditions: Homo sapiens, MCF7, 72 h, read-out: Inhibitory concentration IC50, MCF-7
Description: as §1

PC-3 = test: Colony formation assay; assay type: cell-based; conditions: Homo sapiens, PC-3, 72 h, read-out: Inhibitory concentration IC50, PC-3
Description: as §1

[4] = colony formation assay, incubation three days

Row | Compound | Penetration into the cell nuclei (in words) (HCT-116 and MCF-7 cells) | EC50 [1] [nM] | Trolox Equivalent Antioxidant Capacity (TEAC) [1] | Impact on tubulin polymerization (in words) (porcine neuronal tubulin) | Maximum Initial Rate of Polymerization V Max (porcine neuronal tubulin) [mOD/Min] | Concentration sufficient to completely prevent migration of DNA ([2]; agarose gel) [µM] | Changes in the optical spectrum on interaction with genomic DNA (in words) [3] | IC50 (HCT-116; [4]) [nM] | IC50 (MCF-7; [4]) [nM] | IC50 (PC-3; [4]) [nM] | Interaction with DNA (in words) [2] | Shift of the Absorption Maximum Relative to Control ([3]; DNA concentration 15 µg/mL) [nm] | Shift of the Absorption Maximum Relative to Control ([3]; DNA concentration 20 µg/mL) [nm] | Shift of the Absorption Maximum Relative to Control ([3]; DNA concentration 30 µg/mL) [nm] | Shift of the Absorption Maximum Relative to Control ([3]; DNA concentration 60 µg/mL) [nm] | IC50 (HCT-116) [nM] | IC50 (MCF-7) [nM] | IC50 (PC-3) [nM]
1 | COc1cccc2c1C(=O)c1c(O)c3c(c(O)c1C2=O)C[C@@](O)(C(=O)CO)C[C@@H]3O[C@H]1C[C@H](N)[C@H](O)[C@H](C)O1 [DOX, Doxorubicin, reference compound] | efficiently permeates and accumulates in the cell nuclei | 6700 ± 700 | 2.34 | no statistically significant impact | 5.5 | 15 | significant changes | 620 ± 140 | 60 ± 3 | 1170 ± 480 | – | – | – | – | – | – | – | –
2 | COc1cccc2c1C(=O)c1c(O)c3c(c(O)c1C2=O)CC(O)(C(=O)CO)CC3OC1CC(NC(=O)c2cnc(C)c3c2COC(C)(C)O3)C(O)C(C)O1 (centres unmarked) [DOX-1, N-(3-hydroxy-2-methyl-6-((3,5,12-trihydroxy-3-(2-hydroxyacetyl)-10-methoxy-6,11-dioxo-1,2,3,4,6,11-hexahydrotetracen-1-yl)oxy)tetrahydro-2H-pyran-4-yl)-2,2,8-trimethyl-4H-[1,3]dioxino[4,5-c]pyridine-5-carboxamide] | do not penetrate the cell nuclei | 4500 ± 500 | 3.49 | no statistically significant impact | 5.5 | – | no significant changes | – | – | – | do not interact with DNA | 2 | 1 | 4 | 2 | 4420 ± 3020 | 870 ± 120 | 3200 ± 310
3 | COc1cccc2c1C(=O)c1c(O)c3c(c(O)c1C2=O)CC(O)(C(=O)CO)CC3OC1CC(NC(=O)/C=C/c2cnc(C)c3c2COC(C)(C)O3)C(O)C(C)O1 (centres unmarked) [DOX-2, (E)-N-(3-hydroxy-2-methyl-6-((3,5,12-trihydroxy-3-(2-hydroxyacetyl)-10-methoxy-6,11-dioxo-1,2,3,4,6,11-hexahydrotetracen-1-yl)oxy)tetrahydro-2H-pyran-4-yl)-3-(2,2,8-trimethyl-4H-[1,3]dioxino[4,5-c]pyridin-5-yl)acrylamide] | do not penetrate the cell nuclei | 18900 ± 6800 | 0.83 | no statistically significant impact | 6.8 | – | no significant changes | – | – | – | do not interact with DNA | 0 | 0 | 0 | 1 | 910 ± 390 | 1630 ± 40 | 1660 ± 820

Reference: publication PMC10970924 (Life, 2024)
